Test results taken from ChEMBL document CHEMBL1275488, “Extended-spectrum beta-lactamase production is associated with an increase in cell invasion and expression of fimbrial adhesins in Klebsiella pneumoniae” (2008).

System: Klebsiella pneumoniae
Assay: Antibacterial activity against extended-spectrum beta-lactamase-producing Klebsiella pneumoniae
Format: functional

Row | MIC | SMILES
1 | < 2 µg/mL | CO/N=C(\C(=O)N[C@@H]1C(=O)N2C(C(=O)O)=C(COC(C)=O)CS[C@H]12)c1csc(N)n1 [CEFOTAXIME]
2 | < 2 µg/mL | CO/N=C(\C(=O)N[C@@H]1C(=O)N2C(C(=O)O)=C(CSc3nc(=O)c(O)nn3C)CS[C@H]12)c1csc(N)n1 [CEFTRIAXONE]

Row | SMILES | MIC
3 | CC(C)(O/N=C(\C(=O)N[C@@H]1C(=O)N2C(C(=O)[O-])=C(C[n+]3ccccc3)CS[C@H]12)c1csc(N)n1)C(=O)O [CEFTAZIDIME] | < 2 µg/mL
